Results reported in EP0674651B1, “SUBSTITUTED 6-AZAANDROSTENONES” (priority 1992, dated 1994).

Key:
[1] = molecular target: T1, human type 1 5α-reductase (Homo sapiens, UniProt P18405); assay: 5α-reductase in vitro inhibitory activity, human type 1
T1 sequence (P18405 1-259): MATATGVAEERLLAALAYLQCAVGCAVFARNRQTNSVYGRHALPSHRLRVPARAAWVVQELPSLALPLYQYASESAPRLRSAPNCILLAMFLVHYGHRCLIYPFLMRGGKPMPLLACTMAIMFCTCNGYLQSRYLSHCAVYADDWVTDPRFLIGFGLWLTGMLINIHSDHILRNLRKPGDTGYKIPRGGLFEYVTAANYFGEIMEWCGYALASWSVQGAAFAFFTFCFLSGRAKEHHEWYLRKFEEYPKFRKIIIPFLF

[2] = molecular target: T2, human type 2 5α-reductase (Homo sapiens, UniProt P31213); assay: 5α-reductase in vitro inhibitory activity, human type 2
T2 sequence (P31213 1-254): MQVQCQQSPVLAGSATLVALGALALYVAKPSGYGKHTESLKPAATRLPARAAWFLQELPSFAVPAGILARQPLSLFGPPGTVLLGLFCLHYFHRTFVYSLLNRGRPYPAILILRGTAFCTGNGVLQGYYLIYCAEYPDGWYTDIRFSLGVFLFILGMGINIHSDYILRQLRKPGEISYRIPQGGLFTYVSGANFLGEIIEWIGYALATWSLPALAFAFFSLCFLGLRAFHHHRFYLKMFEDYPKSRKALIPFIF

SMILES | IC50 [1] [nM] | IC50 [2] [nM]
CC(C)(C)c1ccc(C2(NC(=O)[C@H]3CC[C@H]4[C@@H]5CNC6=CC(=O)CC[C@]6(C)[C@H]5CC[C@]34C)CCOCC2)cc1 [Compound 145, 17β-N-4-(4-t-Butylphenyl)tetrahydropyranyl-carbamoyl-6-azaandrost-4-en-3-one] | < 10 | < 10
COc1ccc(C(C)(C)C)cc1NC(=O)[C@H]1CC[C@H]2[C@@H]3CNC4=CC(=O)CC[C@]4(C)[C@H]3CC[C@]12C [Compound 128, 17β-N-(2-Methoxy-5-t-butyl)phenyl-carbamoyl-6-azaandrost-4-en-3-one] | < 10 | < 10
C[C@]12CC[C@H]3[C@@H](CNC4=CC(=O)CC[C@@]43C)[C@@H]1CC[C@@H]2C(=O)NC1(c2cccc(C(F)(F)F)c2)CCCC1 [Compound 102, 17β-N-1-(3-Trifluoromethylphenyl)cyclopentyl-carbamoyl-6-azaandrost-4-en-3-one] | < 10 | < 10
CCc1cc(C#N)ccc1NC(=O)[C@H]1CC[C@H]2[C@@H]3CNC4=CC(=O)CC[C@]4(C)[C@H]3CC[C@]12C [Compound 84, 17β-N-(2-Ethyl-4-cyano)phenyl-carbamoyl-6-azaandrost-4-en-3-one] | 10 to 100 | < 10
C[C@]12CC[C@H]3[C@@H](CNC4=CC(=O)CC[C@@]43C)[C@@H]1CC[C@@H]2C(=O)Nc1cc(C(F)(F)F)ccc1Br [Compound 61, 17β-N-(2-Bromo-5-trifluoromethyl)phenyl-carbamoyl-6-azaandrost-4-en-3-one] | 10 to 100 | < 10
CC(C)(C)c1ccc(NC(=O)[C@H]2CC[C@H]3[C@@H]4CNC5=CC(=O)CC[C@]5(C)[C@H]4CC[C@]23C)c(Br)c1 [Compound 71, 17β-N-(2-Bromo-4-t-butyl)phenyl-carbamoyl-6-azaandrost-4-en-3-one] | 10 to 100 | < 10
C[C@]12CC[C@H]3[C@@H](CNC4=CC(=O)CC[C@@]43C)[C@@H]1CC[C@@H]2C(=O)NNc1ccccc1 [Compound 141, 17β-N-(2-Phenyl)-hydrazidyl-carbamoyl-6-azaandrost-4-en-3-one] | > 100 | < 10
CC(C)(C)c1ccc(C2(NC(=O)[C@H]3CC[C@H]4[C@@H]5CNC6=C(Cl)C(=O)CC[C@]6(C)[C@H]5CC[C@]34C)CCCCC2)cc1 [Compound 139, 17β-N-1-(4-t-Butylphenyl)cyclohexyl-carbamoyl-6-azaandrost-4-chloro-4-en-3-one] | < 10 | < 10
C[C@]12CC[C@H]3[C@@H](CNC4=CC(=O)CC[C@@]43C)[C@@H]1CC[C@@H]2C(=O)Nc1ccccc1C(=O)c1ccccc1 [Compound 123, 17β-N-(2-Benzoyl)phenyl-carbamoyl-6-azaandrost-4-en-3-one] | 10 to 100 | < 10
Cc1cccc(C(C)(C)C)c1NC(=O)[C@H]1CC[C@H]2[C@@H]3CNC4=CC(=O)CC[C@]4(C)[C@H]3CC[C@]12C [Compound 62, 17β-N-(2-t-Butyl-6-methyl)phenyl-carbamoyl-6-azaandrost-4-en-3-one] | > 100 | < 10
CC(C)(C)c1cc(NC(=O)[C@H]2CC[C@H]3[C@@H]4CNC5=CC(=O)CC[C@]5(C)[C@H]4CC[C@]23C)cc(C(C)(C)C)c1 [Compound 86, 17β-N-(3,5-Di-t-butyl)phenyl-carbamoyl-6-azaandrost-4-en-3-one] | < 10 | < 10
CCS(=O)(=O)c1ccc(C(F)(F)F)cc1NC(=O)[C@H]1CC[C@H]2[C@@H]3CNC4=CC(=O)CC[C@]4(C)[C@H]3CC[C@]12C [Compound 85, 17β-N-(2-Ethylsulfonyl-5-trifluoromethyl)phenyl-carbamoyl-6-azaandrost-4-en-3-one] | < 10 | < 10
C[C@]12CC[C@H]3[C@@H](CNC4=CC(=O)CC[C@@]43C)[C@@H]1CC[C@@H]2C(=O)Nc1cc(C(F)(F)F)ccc1-c1ccccc1 [Compound 112, 17β-N-(2-Phenyl-5-trifluoromethyl)phenyl-carbamoyl-6-azaandrost-4-en-3-one] | 10 to 100 | < 10
CCc1c(Cl)cc(Cl)c(CC)c1NC(=O)[C@H]1CC[C@H]2[C@@H]3CNC4=CC(=O)CC[C@]4(C)[C@H]3CC[C@]12C [Compound 54, 17β-N-(2,6-Diethyl-3,5-dichloro)phenyl-carbamoyl-6-azaandrost-4-en-3-one] | 10 to 100 | < 10
COc1cc(Cl)cc(NC(=O)[C@H]2CC[C@H]3[C@@H]4CNC5=CC(=O)CC[C@]5(C)[C@H]4CC[C@]23C)c1 [Compound 113, 17β-N-(3-Methoxy-5-chloro)phenyl-carbamoyl-6-azaandrost-4-en-3-one] | 10 to 100 | < 10
C[C@]12CC[C@H]3[C@@H](CNC4=CC(=O)CC[C@@]43C)[C@@H]1CC[C@@H]2C(=O)NC1(c2ccc(F)cc2)CCCCC1 [Compound 109, 17β-N-1-(4-Fluorophenyl)cyclohexyl-carbamoyl-6-azaandrost-4-en-3-one] | < 10 | < 10
C[C@]12CC[C@H]3[C@@H](CNC4=CC(=O)CC[C@@]43C)[C@@H]1CC[C@@H]2COC(=O)Oc1ccccc1 [Compound 90, 17β-Hydroxymethyl-(phenylcarbonate)-6-azaandrost-4-en-3-one] | < 10 | < 10
CCc1ccc(Cl)c(CC)c1NC(=O)[C@H]1CC[C@H]2[C@@H]3CNC4=CC(=O)CC[C@]4(C)[C@H]3CC[C@]12C [Compound 55, 17β-N-(2,6-Diethyl-3-chloro)phenyl-carbamoyl-6-azaandrost-4-en-3-one] | 10 to 100 | < 10
CC(C)(C)c1ccc(C(F)(F)F)cc1NC(=O)[C@H]1CC[C@H]2[C@@H]3CNC4=C(Cl)C(=O)CC[C@]4(C)[C@H]3CC[C@]12C [Compound 127, 17β-N-(2-t-Butyl-5-trifluoromethyl)phenyl-carbamoyl-6-azaandrost-4-chloro-4-en-3-one] | < 10 | < 10
CC(C)(C)c1cc(Br)ccc1NC(=O)[C@H]1CC[C@H]2[C@@H]3CNC4=CC(=O)CC[C@]4(C)[C@H]3CC[C@]12C [Compound 77, 17β-N-(4-Bromo-2-t-butyl)phenyl-carbamoyl-6-azaandrost-4-en-3-one] | < 10 | < 10
C[C@]12CC[C@H]3[C@@H](CNC4=CC(=O)CC[C@@]43C)[C@@H]1CC[C@@H]2C(=O)NC1(c2ccc(Cl)cc2)CCCC1 [Compound 64, 17β-N-1-(4-Chlorophenyl)cyclopentyl-carbamoyl-6-azaandrost-4-en-3-one] | < 10 | < 10
C[C@]12CC[C@H]3[C@@H](CNC4=CC(=O)CC[C@@]43C)[C@@H]1CC[C@@H]2C(=O)N1CCC(Cc2ccccc2)CC1 [Compound 37, 17β-N-(4-Benzyl)piperidyl-carbamoyl-6-azaandrost-4-en-3-one] | 10 to 100 | < 10
CC(C)(C)c1ccc(NC(=O)[C@H]2CC[C@H]3[C@@H]4CNC5=CC(=O)CC[C@]5(C)[C@H]4CC[C@]23C)c(C(F)(F)F)c1 [Compound 100, 17β-N-(4-t-Butyl-2-trifluoromethyl)phenyl-carbamoyl-6-azaandrost-4-en-3-one] | < 10 | < 10
CCc1cc(-c2ccc(Cl)cc2)cc(CC)c1NC(=O)[C@H]1CC[C@H]2[C@@H]3CNC4=CC(=O)CC[C@]4(C)[C@H]3CC[C@]12C [Compound 140, 17β-N-(2,6-Diethyl-4-(4-chlorophenyl))phenyl-carbamoyl-6-azaandrost-4-en-3-one] | < 10 | < 10
CC(C)(C)c1ccc(C#N)cc1NC(=O)[C@H]1CC[C@H]2[C@@H]3CNC4=CC(=O)CC[C@]4(C)[C@H]3CC[C@]12C [Compound 78, 17β-N-(2-t-Butyl-5-cyano)phenyl-carbamoyl-6-azaandrost-4-en-3-one] | 10 to 100 | < 10
C[C@]12CC[C@H]3[C@@H](CNC4=CC(=O)CC[C@@]43C)[C@@H]1CC[C@@H]2C(=O)NC1(c2ccc(Cl)cc2Cl)CC1 [Compound 101, 17β-N-1-(2,4-Dichlorophenyl)cyclopropyl-carbamoyl-6-azaandrost-4-en-3-one] | < 10 | < 10
CC(C)C(NC(=O)[C@H]1CC[C@H]2[C@@H]3CNC4=CC(=O)CC[C@]4(C)[C@H]3CC[C@]12C)c1ccc(Cl)cc1 (stereo partly drawn) [Compound 65, 17β-N-(1-(4-Chlorophenyl)-2-methyl)propyl-carbamoyl-6-azaandrost-4-en-3-one] | 10 to 100 | < 10
COc1ccc(C2(NC(=O)[C@H]3CC[C@H]4[C@@H]5CNC6=CC(=O)CC[C@]6(C)[C@H]5CC[C@]34C)CCCCC2)cc1 [Compound 111, 17β-N-1-(4-Methoxyphenyl)cyclohexyl-carbamoyl-6-azaandrost-4-en-3-one] | < 10 | < 10
CC(C)c1cccc(C(C)C)c1NC(=O)OC[C@H]1CC[C@H]2[C@@H]3CNC4=CC(=O)CC[C@]4(C)[C@H]3CC[C@]12C [Compound 99, 17β-Hydroxymethyl-(2,6-diisopropylphenylcarbamate)-6-azaandrost-4-en-3-one] | < 10 | < 10
CC1=C2NC[C@H]3[C@@H]4CC[C@H](C(=O)NC5(c6ccc(Cl)cc6)CCCC5)[C@@]4(C)CC[C@@H]3[C@@]2(C)CCC1=O [Compound 125, 17β-N-1-(4-Chlorophenyl)cyclopentyl-carbamovl-6-azaandrost-4-methyl-4-en-3-one] | < 10 | < 10
